What was measured:
IDE = target: T1, IDE (Homo sapiens, UniProt P14735); test: Purified peptidase assay, IDE; assay type: biochemical; conditions: recombinant purified human enzyme; for prodrugs the active form was tested
T1 construct: purchased R&D Systems (Minneapolis, MN)
T1 sequence (P14735 1-1019): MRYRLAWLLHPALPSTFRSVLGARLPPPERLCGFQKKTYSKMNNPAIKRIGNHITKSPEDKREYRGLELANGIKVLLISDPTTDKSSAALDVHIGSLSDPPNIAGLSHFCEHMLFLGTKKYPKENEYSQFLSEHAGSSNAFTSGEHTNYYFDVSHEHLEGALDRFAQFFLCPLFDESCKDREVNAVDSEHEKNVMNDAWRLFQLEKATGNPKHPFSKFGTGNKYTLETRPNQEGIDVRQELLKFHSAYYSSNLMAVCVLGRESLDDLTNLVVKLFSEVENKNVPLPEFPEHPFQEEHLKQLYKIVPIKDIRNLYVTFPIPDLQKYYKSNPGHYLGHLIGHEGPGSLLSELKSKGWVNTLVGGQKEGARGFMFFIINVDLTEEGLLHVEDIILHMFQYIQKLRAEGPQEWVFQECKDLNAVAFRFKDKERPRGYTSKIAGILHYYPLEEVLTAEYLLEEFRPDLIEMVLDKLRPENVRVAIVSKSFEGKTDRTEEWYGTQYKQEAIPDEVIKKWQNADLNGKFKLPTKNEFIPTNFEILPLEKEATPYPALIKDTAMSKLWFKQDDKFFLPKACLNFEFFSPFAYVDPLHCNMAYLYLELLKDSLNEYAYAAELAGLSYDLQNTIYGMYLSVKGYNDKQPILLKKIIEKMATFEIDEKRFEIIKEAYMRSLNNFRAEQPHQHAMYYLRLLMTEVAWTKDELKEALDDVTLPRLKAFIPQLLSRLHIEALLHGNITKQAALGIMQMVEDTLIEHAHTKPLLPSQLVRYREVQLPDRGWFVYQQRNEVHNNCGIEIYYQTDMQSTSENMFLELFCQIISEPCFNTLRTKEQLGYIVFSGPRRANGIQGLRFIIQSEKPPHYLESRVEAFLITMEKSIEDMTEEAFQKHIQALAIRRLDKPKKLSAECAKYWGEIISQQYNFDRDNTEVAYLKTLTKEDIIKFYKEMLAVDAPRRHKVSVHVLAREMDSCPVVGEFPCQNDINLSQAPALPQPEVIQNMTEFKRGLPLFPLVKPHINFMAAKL
Procedure: (§1) Purified recombinant human enzymes were purchased from R&D Systems (Minneapolis, MN). […] Each substrate was diluted to 100 μM in the assay buffer recommended for each enzyme by the supplier. […] To these, 5 μl of diluted enzyme was added, followed by 10 μl of the quenched peptide substrate. The plates were incubated at 37°C until at least 10% substrate turnover or 5 μM product had formed. Fluorescence was measured using a Tecan Safire II (Excitation 320 nm/Emission 420 nm). Each plate included a standard curve of reaction product and positive (no enzyme) and negative (dimethyl sulfoxide vehicle) controls. Dose-response data were plotted and inhibition values (IC50) determined by linear regression analysis using GraphPad Prism (GraphPad Software, La Jolla, CA).

NEP [1] = target: T2, NEP (Rattus norvegicus, UniProt P07861); test: NEP enzyme activity in tissues after oral treatment; assay type: in vivo; conditions: 5 hours postdose, single oral dose, rats
T2 construct: NEP enzyme activity was measured in tissue homogenates; from tissue; host or cells: Wistar rat kidney, lung, duodenum, jejunum homogenates
T2 sequence (P07861 1-750): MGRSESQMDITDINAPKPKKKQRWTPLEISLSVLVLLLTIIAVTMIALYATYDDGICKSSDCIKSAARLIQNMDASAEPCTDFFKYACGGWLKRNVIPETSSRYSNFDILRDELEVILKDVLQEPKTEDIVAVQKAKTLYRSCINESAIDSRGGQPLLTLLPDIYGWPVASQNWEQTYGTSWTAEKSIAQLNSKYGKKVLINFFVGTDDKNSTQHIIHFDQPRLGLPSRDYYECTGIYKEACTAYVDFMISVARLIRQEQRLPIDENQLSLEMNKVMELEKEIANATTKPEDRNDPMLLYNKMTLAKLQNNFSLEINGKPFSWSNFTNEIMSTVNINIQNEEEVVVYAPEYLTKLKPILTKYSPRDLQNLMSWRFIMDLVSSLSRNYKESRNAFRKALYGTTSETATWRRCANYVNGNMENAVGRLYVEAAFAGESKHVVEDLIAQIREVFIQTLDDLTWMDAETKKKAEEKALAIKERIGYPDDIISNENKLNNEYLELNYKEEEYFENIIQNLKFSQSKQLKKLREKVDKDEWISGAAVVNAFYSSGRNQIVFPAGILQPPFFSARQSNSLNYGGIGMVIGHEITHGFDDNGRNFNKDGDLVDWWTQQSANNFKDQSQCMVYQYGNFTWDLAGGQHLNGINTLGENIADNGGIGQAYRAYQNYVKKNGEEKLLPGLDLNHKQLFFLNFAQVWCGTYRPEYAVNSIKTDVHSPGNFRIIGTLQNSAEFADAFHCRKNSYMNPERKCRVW
Procedure: Four or five 2-mm Zirconia beads (Biospec, Bartlesville, OK) were added to fresh weighed tissue specimens (50–250 mg). Assay buffer consisting of 50 mM Tris-HCl (pH 7.4), 200 mM NaCl, and 0.05% TritonX-100 was added (4 μl/mg), and the sample was homogenized for 1 minute using a bead beater (Biospec). Stored frozen homogenates were thawed at room temperature and centrifuged 10 minutes at 18,000g, and the protein concentration was determined for each supernatant. […] NEP substrate 2Abz-dArg-Gly-Leu-C2-Dnp (American Peptide, Sunnyvale, CA) was prepared at 1 mM in 20% acetonitrile/water and diluted to 100 μM in assay buffer, and 10 μl was dispensed to homogenate-containing wells. […] Kinetic data were plotted to determine the rate of product formation by linear regression with interpolation against a standard curve, and the rate was normalized to protein concentration.

ACE = target: T3, ACE (Homo sapiens, UniProt P12821); test: Purified peptidase assay, ACE; assay type: biochemical; conditions: recombinant purified human enzyme; for prodrugs the active form was tested
T3 construct: purchased R&D Systems (Minneapolis, MN)
Procedure: as §1

NEP [2] = target: T4, NEP (Homo sapiens, UniProt P08473); test: Purified peptidase assay, NEP; assay type: biochemical; conditions: recombinant purified human enzyme; for prodrugs the active form was tested
T4 construct: purchased R&D Systems (Minneapolis, MN)
Procedure: as §1

aminopeptidase N = target: T5, aminopeptidase N (Homo sapiens, UniProt P15144); test: Purified peptidase assay, APN; assay type: biochemical; conditions: recombinant purified human enzyme; for prodrugs the active form was tested
T5 construct: purchased R&D Systems (Minneapolis, MN)
Procedure: as §1

T4 sequence (P08473 whole entry): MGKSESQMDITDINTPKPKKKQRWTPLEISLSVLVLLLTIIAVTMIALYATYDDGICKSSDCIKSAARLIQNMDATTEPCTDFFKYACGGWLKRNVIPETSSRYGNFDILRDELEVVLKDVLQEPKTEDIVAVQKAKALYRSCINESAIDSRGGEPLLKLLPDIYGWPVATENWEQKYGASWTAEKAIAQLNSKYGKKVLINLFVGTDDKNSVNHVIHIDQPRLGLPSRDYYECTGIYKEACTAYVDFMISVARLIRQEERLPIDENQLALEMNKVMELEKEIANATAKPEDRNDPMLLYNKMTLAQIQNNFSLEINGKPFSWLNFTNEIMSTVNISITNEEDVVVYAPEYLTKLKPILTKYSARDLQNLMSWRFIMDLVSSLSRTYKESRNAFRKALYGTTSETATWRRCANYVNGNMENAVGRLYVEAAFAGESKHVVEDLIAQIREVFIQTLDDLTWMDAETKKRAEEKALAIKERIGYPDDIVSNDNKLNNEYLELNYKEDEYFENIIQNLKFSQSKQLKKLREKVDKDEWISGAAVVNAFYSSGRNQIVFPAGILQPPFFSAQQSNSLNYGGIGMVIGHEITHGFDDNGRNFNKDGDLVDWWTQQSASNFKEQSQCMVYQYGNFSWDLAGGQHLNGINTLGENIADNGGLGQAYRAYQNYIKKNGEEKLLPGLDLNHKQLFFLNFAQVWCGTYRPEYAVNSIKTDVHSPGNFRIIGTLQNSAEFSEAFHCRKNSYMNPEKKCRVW
T3 sequence (P12821 30-1306): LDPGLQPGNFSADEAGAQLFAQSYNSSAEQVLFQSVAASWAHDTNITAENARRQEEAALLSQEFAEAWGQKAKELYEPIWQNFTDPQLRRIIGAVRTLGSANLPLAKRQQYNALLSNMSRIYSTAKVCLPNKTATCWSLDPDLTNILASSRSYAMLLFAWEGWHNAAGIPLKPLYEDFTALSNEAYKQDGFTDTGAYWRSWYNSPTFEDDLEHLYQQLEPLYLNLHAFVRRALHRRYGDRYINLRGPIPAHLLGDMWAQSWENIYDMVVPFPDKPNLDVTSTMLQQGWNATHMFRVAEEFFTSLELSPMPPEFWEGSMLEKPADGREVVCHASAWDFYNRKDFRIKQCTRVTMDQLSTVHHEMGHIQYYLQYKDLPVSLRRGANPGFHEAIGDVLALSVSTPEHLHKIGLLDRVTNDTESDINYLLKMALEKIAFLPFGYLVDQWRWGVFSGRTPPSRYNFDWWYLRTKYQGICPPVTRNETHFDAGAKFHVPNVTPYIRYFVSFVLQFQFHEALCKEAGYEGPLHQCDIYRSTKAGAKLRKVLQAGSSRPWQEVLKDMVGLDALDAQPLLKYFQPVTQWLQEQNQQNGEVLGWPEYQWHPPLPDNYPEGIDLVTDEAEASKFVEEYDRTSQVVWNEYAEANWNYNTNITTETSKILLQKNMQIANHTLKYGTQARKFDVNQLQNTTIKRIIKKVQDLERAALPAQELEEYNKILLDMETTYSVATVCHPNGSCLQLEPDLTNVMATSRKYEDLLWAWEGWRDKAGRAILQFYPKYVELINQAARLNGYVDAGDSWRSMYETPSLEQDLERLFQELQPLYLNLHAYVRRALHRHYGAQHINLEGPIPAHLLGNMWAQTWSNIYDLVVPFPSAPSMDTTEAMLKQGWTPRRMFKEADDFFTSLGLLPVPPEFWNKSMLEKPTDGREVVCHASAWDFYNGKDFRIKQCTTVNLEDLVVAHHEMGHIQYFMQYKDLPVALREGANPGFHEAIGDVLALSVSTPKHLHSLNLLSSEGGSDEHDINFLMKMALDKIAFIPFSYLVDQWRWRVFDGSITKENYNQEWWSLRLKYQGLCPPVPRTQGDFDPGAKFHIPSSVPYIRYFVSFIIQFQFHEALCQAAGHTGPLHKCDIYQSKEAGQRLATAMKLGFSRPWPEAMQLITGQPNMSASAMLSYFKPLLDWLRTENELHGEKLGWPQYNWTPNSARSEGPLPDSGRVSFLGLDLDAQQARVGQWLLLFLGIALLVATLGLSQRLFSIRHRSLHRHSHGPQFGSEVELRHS
T5 sequence (P15144 whole entry): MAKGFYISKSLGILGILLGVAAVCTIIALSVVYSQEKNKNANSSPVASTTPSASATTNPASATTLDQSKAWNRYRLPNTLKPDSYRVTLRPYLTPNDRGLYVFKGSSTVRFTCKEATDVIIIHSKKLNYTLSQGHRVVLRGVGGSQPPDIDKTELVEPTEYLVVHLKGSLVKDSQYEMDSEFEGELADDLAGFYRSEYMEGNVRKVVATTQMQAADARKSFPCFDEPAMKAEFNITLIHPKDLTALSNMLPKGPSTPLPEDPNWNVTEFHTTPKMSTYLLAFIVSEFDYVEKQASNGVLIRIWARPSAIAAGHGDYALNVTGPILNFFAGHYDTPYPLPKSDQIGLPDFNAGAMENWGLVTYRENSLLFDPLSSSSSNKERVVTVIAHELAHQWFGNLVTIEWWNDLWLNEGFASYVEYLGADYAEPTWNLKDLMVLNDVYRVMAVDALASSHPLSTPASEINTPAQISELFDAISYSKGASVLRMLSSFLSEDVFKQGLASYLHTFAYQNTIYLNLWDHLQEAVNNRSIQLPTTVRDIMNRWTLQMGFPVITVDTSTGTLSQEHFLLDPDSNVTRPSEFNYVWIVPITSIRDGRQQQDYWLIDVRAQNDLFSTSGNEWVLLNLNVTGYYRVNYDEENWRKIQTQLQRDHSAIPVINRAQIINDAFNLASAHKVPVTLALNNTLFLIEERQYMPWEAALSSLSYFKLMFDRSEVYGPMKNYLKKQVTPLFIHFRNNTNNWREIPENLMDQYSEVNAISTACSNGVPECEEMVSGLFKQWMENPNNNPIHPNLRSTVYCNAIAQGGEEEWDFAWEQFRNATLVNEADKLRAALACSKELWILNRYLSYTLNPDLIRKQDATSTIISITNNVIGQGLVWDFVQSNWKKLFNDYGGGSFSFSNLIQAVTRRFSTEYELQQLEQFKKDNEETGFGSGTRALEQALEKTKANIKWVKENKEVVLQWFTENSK

IC50 (IDE): > 100 µM
Inhibition of NEP in the intestinal segments (NEP [1]): > 92%
Inhibition of NEP in the intestinal segments (NEP [1]; listed as UK-505,797): ≥ 97%
IC50 (ACE): > 100 µM
IC50 (NEP [2]): 4 nM
IC50 (aminopeptidase N): > 100 µM
SMILES: Cc1nc2ccc(CCCNC(=O)C3(C[C@@H](C)C(=O)O)CCCC3)cc2s1 [UK-505,749, (R)-2-methyl-3-(1-((3-(2-methylbenzo[d]thiazol-6-yl)propyl)carbamoyl)cyclopentyl)propanoic acid]

— article PMC4851326, “Pharmacologic Comparison of Clinical Neutral Endopeptidase Inhibitors in a Rat Model of Acute Secretory Diarrhea” (The Journal of Pharmacology and Experimental Therapeutics, 2016)
